Experimental data as given in US20100298329A1, “TOLPERISONE AND TOLPERISONE-LIKE DRUGS FOR THE TREATMENT OF K-RAS ASSOCIATED CANCERS” (Massachusette Institute of Technology, priority 2007, published 2010).

What was measured:
[1] = tested on: wild-type and K-rasG12D MEFs; test: Gene expression profiling (GSEA, Connectivity Map); assay type: cell-based, mouse
Protocol: (§1) To study the selectivity of lanperisone for K-ras mutant cells, gene expression profiling experiments were carried out using wild-type and K-rasG12D MEFs treated with lanperisone or control DMSO. The gene expression signatures associated with lanperisone treatment were compared with those observed upon 1) manipulation of any of a number of defined biological pathways (i.e., Gene Set Enrichment Analysis or GSEA) and 2) treatment with small molecules with known targets including FDA-approved drugs (ie the Connectivity Map or CMAP). […] This mechanism of cell death occurs in both mouse and human cells, as well as in both fibroblast and epithelial cell lines.

[2] = tested on: subcutaneous K-ras G12D-expressing mouse fibroblast tumors; test: Xenograft tumor size in mice; assay type: in vivo; details: 100-200 mg/kg once a day, 7 consecutive days, vs matched DMSO controls
Protocol: The effectiveness of one or more compounds of the invention (e.g., lanperisone) was evaluated in vivo using xenografts. The effect on xenograft tumor size was evaluated in mice by administering a compound of the invention at a dose of 100-200 mg/kg once a day (e.g., via oral administration in water). The compounds were also administered intraperitoneally. Mice harboring established, subcutaneous tumors measuring at least 1 cm were treated with lanperisone for 7 consecutive days. […] These findings confirm the in vivo efficacy of lanperisone in targeting K-ras mutant tumors.

[3] = tested on: K-Ras mutant cells (cells with Kras G12D mutation); test: FACS analysis of cell death and proliferation (Tunnel/PI staining, DNA content, BrdU staining); assay type: cell-based
Protocol: The effects of lanperisone on cell proliferation and cell death were evaluated based on a FACS analysis. Tunnel staining (for dying cells) and PI staining (excluded by living cells) were used to evaluate cell death in lanperisone and DMSO treated wild-type and K-Ras mutant cells (cells with a Kras G12D mutation).

[4] = tested on: K-rasG12D-expressing cells; test: Additional biochemical experiments on mechanism of cell death (reactive oxygen species); assay type: cell-based; details: mouse and human cells, fibroblast and epithelial cell lines
Protocol: as §1

K-Ras mutant cells = test: BrdU cytoblot assay (proliferation by BrdU incorporation); assay type: cell-based, mouse; details: proliferation based upon incorporation of BrdU
Source text: (§2) The differential activity of tolperisone confirmed using other assays, such as BrdU cytoblot assay, which measures proliferation based upon incorporation of BrdU.

[5] = tested on: mouse embryonic fibroblasts (MEFs) expressing oncogenic K-Ras; test: Cell Titer Glo cell viability screen, mutant K-Ras vs wild-type MEFs; assay type: cell-based; details: cell viability by intracellular ATP
Source text: These MEFs have been extensively characterized at the molecular and cellular level. […] The inclusion of wild-type cells allowed for the elimination of general cytotoxic compounds and for the targeting of molecular pathways activated by oncogenic K-Ras.
as §2

Structure (SMILES) | Connectivity Map connectivities with other classes of small molecules ([1]; calcium modulators, HDAC inhibitors, HIF activators) | GSEA pathway enrichment ([1]; lanperisone-treated MEFs vs DMSO) | tumor size at the end of the treatment period [2] | cell cycle phase specificity of cell death (cellular DNA content) ([3]; FACS, FIG. 3B) | cellular proliferation (BrdU staining) ([3]; FACS, FIG. 3C) | cell death (Tunnel staining / PI staining) ([3]; at 6 hours, 10 μM and 20 μM, Kras G12D cells relative to wild-type cells) | mechanism of selective cell killing [4] | differential activity in BrdU cytoblot assay (K-Ras mutant cells) | concentration at which differential activity was shown (as low as) [5]
C[C@H](CN1CCCC1)C(=O)c1ccc(C(F)(F)F)cc1 [lanperisone] | Numerous connectivities | marked enrichment of hypoxia as well as oxidative stress pathways | significantly smaller tumors than matched controls | not specific to any particular phase of the cell cycle | no specific defect in cellular proliferation | preferentially caused cell death in K-Ras mutant cells | selectively kills K-rasG12D-expressing cells by inducing reactive oxygen species |  | 
Cc1ccc(C(=O)C(C)CN2CCCCC2)cc1 (stereo not drawn) [tolperisone] |  |  |  |  |  |  |  | confirmed | 5 microns
